# Results: patent US20240415858A1, “PROMOTING MYELINATION BY N-ACETYLGLUCOSAMINE AND MODULATION OF N-GLYCAN BRANCHING” (THE REGENTS OF THE UNIVERSITY OF CALIFORNIA, priority 2021, published 2024)
# “Also recorded” adds a separate entry of the source.
# Tests used:
# [1] = test system: mouse neural stem cells (NSC) derived from the medial ganglionic eminence of E12.5 mouse embryos; assay: Oligodendrogenesis from mouse neural stem cells in vitro (flow cytometry, immunofluorescence); type: cell-based
# Source text: Mice were bred and utilized as approved by the University of California, Irvine Institutional Animal Care and Use Committee. Dorsal forebrain cortical tissue was dissected from the medial ganglionic eminence (MGE) at embryonic day 12.5 (E12) of CD1 mice (Charles River) or Mgat5−/− C57BL/6 mice and their wildtype littermates and placed in dissection buffer comprising PBS, 0.6% glucose, and 50 U/mL Pen/Strep. Tissue from multiple embryos within the same litter were pooled, and a subsequent culture from a single litter was considered a biological repeat. The tissue was dissociated using 0.05% Trypsin-EDTA at 37° C. for 10 min, followed by treatment with soybean trypsin inhibitor (Life Technologies). Dissociated cells were re-suspended in proliferation medium comprising DMEM, 1× B27, 1× N2, 1 mM sodium pyruvate, 2 mM L-glutamine, 1 mM N-acetylcysteine, 20 ng/mL EGF (PeproTech), 10 ng/mL bFGF (PeproTech), and 2 μg/mL heparin and seeded at 150,000 cells/mL (non-tissue culture treated plastic plates) and grown as non-adherent spheres. Cell cultures were passaged approximately every 3 days using enzyme-free NeuroCult Chemical Dissociation Kit (Mouse) (StemCell Technologies). Cultures were passaged at least once prior to experimental use. For experiments, passaged cells were cultured in proliferation media (bFGF and EGF) or differentiation media (bFGF (10 ng/ml) and PDGF-AA (10 ng/ml); Life technologies) for 48 hours with or without the presence of GIcNAc (Ultimate Glucosamine, Wellesley Therapeutics) or kifunensine (GlycoSyn). Neurospheres were dispersed using the enzyme-free NeuroCult kit before being analyzed by flow cytometry using one or more of the following antibodies: anti-CD140a/PDGF-RA PE conjugate (1:200, A15785, Molecular Probes), anti-04 Alexa Fluor 488 conjugated (1:200, FAB1326G, RnD systems), Anti-GaIC Alexa Fluor 647 1:200, MAB342-AF647, Millipore), Anti-Olig2 (1:200, AB9610, Millipore) with anti-rabbit Alexa Fluor 488 (1:200, thermofisher).
# For neural stem cell (NSC) immunofluorescence, whole neurospheres were seeded onto laminin-coated coverslips (Neuvitro) in proliferation medium. After 24 hours, proliferation media was removed and replaced with differentiation medium (same components as proliferation medium but excluding EGF, bFGF, and heparin) to induce differentiation. For analysis of mouse brains, brains were incubated in 30% sucrose for at least 72 hours, embedded in OCT (Tissue-tek), frozen for at least 48 hours at −80° C., and then cut at 40 microns on a cryostat. Multiple sections from −1 bregma to −2.5 bregma were then stained with antibodies for MBP (1:100; MAB386, Millipore), Olig2 (1:200; AB9610, Millipore), CC1 (1:100; OP90, Millipore), degraded MBP (1:200, AB5864, Millipore) and Amyloid Precursor Protein (APP, 1:200; clone 22C11). After overnight incubation with primary antibody, tissues were washed and incubated with secondary antibodies: goat anti-rat Alexa-fluor 488 (1:200, Thermofisher), goat anti-rabbit TxRd (1:200, Thermofisher). APP is a marker for neuro-axonal damage while co-staining for CC1 and Olig2 are markers of mature oligodendrocytes. In order to examine the amount of myelin, slices were incubated in Fluoromyelin (1:300; F34651, Thermofisher) for 45 minutes. Images were acquired on a Keyence fluorescence microscope. Mean fluorescence intensity of the medial corpus callosum was measured using ImageJ.
# Oligodendrogenesis were examined in vitro using mouse neural stem cells (NSC) derived from the medial ganglionic eminence of E12.5 mouse embryos, where OPC's first appear. […] Consistent with increased PDGFRα surface expression, GIcNAc also promoted pre-oligodendrocyte differentiation as evidenced by augmented expression of Oligodendrocyte Transcription Factor (OLIG2) and increased numbers of 04 and GaIC positive cells (FIGS. 1A, 1B and 1C, FIGS. 5B and 5C). […]
# MS patients [2] = assay: Open-label Phase 1 trial of oral GIcNAc in MS: safety, tolerability, relapse rate; type: in vivo, human
# Experimental: Based on its immunomodulatory effects, a FDA approved (IND 122235) dose escalation was carried out, open-label NIH funded Phase 1 mechanistic clinical trial of oral GIcNAc in MS patients (RRMS and PMS) on glatiramer acetate and not in acute relapse, with the primary endpoint an increase in N-glycan branching in T cells. This endpoint was used as a surrogate marker for GIcNAc's biological activity. Three doses were evaluated: 1 g TID (3 g total, n=13), 2 g TID (6 g total, n=18) and 4 g TID (12 g total, n=16). Subjects had baseline blood drawn weekly four times, then started on oral GIcNAc with 4 weekly blood draws (FIG. 8A).
# The annualized relapse rate on GIcNAc in the combined group was 0.277 (from a single relapse in a subject on the 6 g dose).
# [3] = Phase 1 trial: serum HexNAc levels by LC-MS/MS; type: in vivo, human; settings: 6 g and 12 g cohorts, after stopping oral GIcNAc
# MS patients [4] = assay: Phase 1 trial: serum neurofilament light chain (Nfl), single molecule array immunoassay; type: in vivo, human; settings: subjects with elevated baseline Nfl from all three dose groups, week 3 and 4 of treatment, p=0.0045, n=18
# Experimental: Comparison of the change in serum Nfl concentration in subjects with elevated baseline levels (combined from the 3 g, 6 g, and 12 g cohorts) showing change from pre-GIcNAc to during weeks 3-4 of GIcNAc treatment. The four data points pre-GIcNAc (black dots) and the two data points from week 3 and 4 during GIcNAc treatment are averaged, normalized to pre-GIcNAc levels and shown as black and red dots connected by black lines for each subject, respectively. Nfl was measured by an ultra sensitive single molecule array immunoassay. P-value by 1-tailed Wilcoxon matched-pairs signed rank test.
# Neurons exclusively express Nfl and release it when damaged, with high serum Nfl levels (>˜40 pg/ml) serving as a robust biomarker for ongoing neuro-axonal damage in MS. This analysis was done blinded by Jens Kuhle (University of Basel), who has published extensively on Nfl in MS.
# MS patients [5] = assay: Phase 1 trial: four-week confirmed improvement in disability (EDSS); type: in vivo, human; settings: unblinded
# Experimental: Four-week confirmed improvement in disability (EDSS) was also evaluated in the 6 g and 12 g cohorts. […] Baseline EDSS scores were compared with scores after 4 weeks of oral GIcNAc that were confirmed 4 weeks later at the last study visit.
# [6] = mouse, in vivo, po
# [7] = NSCs, 48 hrs, growth media lacking exogenous differentiation cytokines
structure (smiles),measurement,setting,value
"CC(=O)N[C@H]1C(O)O[C@H](CO)[C@@H](O)[C@@H]1O (stereo partly drawn) [GIcNAc, N-acetylglucosamine]",NSC differentiation to O4+ pre-oligodendrocytes,[1]; GIcNAc combined with PDGF-AA (differentiation media),enhanced
same,"initiating oligodendrogenesis, compared with PDGF-AA differentiation media",[1]; GIcNAc in growth media vs differentiation media with exogenous PDGF-AA,more potent than differentiation media containing exogenous PDGF-AA
same,"pre-oligodendrocyte differentiation (OLIG2 expression, numbers of O4 and GalC positive cells)","[1]; NSCs, 48 hrs, growth media",promoted
same,N-glycan branching (L-PHA flow cytometry),[1]; [7],significantly increased
same,PDGFRα surface expression,[1]; [7],significantly increased
same,"development of pre-oligodendrocytes (PDGFRα O4+), double staining","[1]; NSCs, growth media",promoted development
same,number of OPC's (PDGFRα+O4−),"[1]; NSCs, growth media",no change
same,annualized relapse rate on GIcNAc,"MS patients [2]; combined group, a single relapse in a subject on the 6 g dose",0.277
same,"subjects with mild GI symptoms (gas, bloating, loose stool)","MS patients [2]; oral, 12 g per day (4 g TID)",~50%
same,discontinuation due to GI symptoms,"MS patients [2]; oral, all doses",No subject discontinued
same,safety,"MS patients [2]; oral, all doses (3 g, 6 g, 12 g per day), 4 weeks",safe
same,"subjects with mild GI symptoms (gas, bloating, loose stool)","MS patients [2]; oral, the other doses (3 g, 6 g per day)",not
same,serum HexNAc levels during the washout period,[3],rapidly declined back to baseline
same,serum Nfl levels,MS patients [4],significantly reduced; also recorded: reduces
same,subjects with 4-week confirmed improvement in clinical disability (EDSS),"MS patients [5]; 6 g/day, 4 of 18 subjects",22%
same,subjects with 4-week confirmed improvement in clinical disability (EDSS),"MS patients [5]; 12 g/day, 5 of 16 subjects",31%
same,crossing of the blood brain barrier,[6],able to cross the blood brain barrier
same,secretion in breast milk,[6],secreted at sufficient levels in breast milk to raise UDP-GIcNAc in the brains of suckling pups
